Molecules are shown by their SMILES. Where “and” joins values, the source holds several entries; their conditions need not be identical. Equal entries are not always repeated. Inconclusive results and toxic doses are left out.

In the experiment the test system is P388 leukemia ip, CD2F1 mice, survival T/C. Put plainly: NCI In Vivo Anticancer Drug Screen. Data for tumor model P388 Leukemia (intraperitoneal) in CD2F1 (CDF1) mice. The conditions noted are these: endpoint: median survival time, higher = longer survival. Summed up: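 Mice carrying the transplanted tumor received test compound or vehicle. Survival was recorded in each group, and the value is the treated-group measurement divided by that of the vehicle-treated control group.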

[1] abbreviates: dose: 25.0 mg/kg/injection, schedule: Q01DX009 (ip), vehicle: saline.
Setting [2] is: dose: 50.0 mg/kg/injection, schedule: Q01DX009 (ip), vehicle: saline.
[3] abbreviates: dose: 50.0 mg/kg/injection, schedule: Q01DX005 (ip), vehicle: Klucel (hydroxypropylcellulose) (HPC).
Where [4] appears, read: dose: 100.0 mg/kg/injection, schedule: Q01DX005 (ip), vehicle: Klucel (hydroxypropylcellulose) (HPC).
Where [5] appears, read: dose: 200.0 mg/kg/injection, schedule: Q01DX005 (ip), vehicle: Klucel (hydroxypropylcellulose) (HPC).
[6] abbreviates: dose: 60.0 mg/kg/injection, schedule: Q01DX005 (ip), vehicle: Klucel + Tween-80.
The mark [7] stands for this setting: dose: 120.0 mg/kg/injection, schedule: Q01DX005 (ip), vehicle: Klucel + Tween-80.
Setting [8] is: dose: 240.0 mg/kg/injection, schedule: Q01DX005 (ip), vehicle: Klucel + Tween-80.
Setting [9] is: dose: 50.0 mg/kg/injection, schedule: Q01DX009 (ip), vehicle: Klucel (hydroxypropylcellulose) (HPC).
Where [10] appears, read: dose: 100.0 mg/kg/injection, schedule: Q01DX009 (ip), vehicle: Klucel (hydroxypropylcellulose) (HPC).
[11] abbreviates: dose: 60.0 mg/kg/injection, schedule: Q01DX005 (ip), vehicle: saline with Tween-80.
[12] abbreviates: dose: 12.5 mg/kg/injection, schedule: Q01DX009 (ip), vehicle: saline with Tween-80.
Setting [13] is: dose: 25.0 mg/kg/injection, schedule: Q01DX009 (ip), vehicle: saline with Tween-80.
Where [14] appears, read: dose: 50.0 mg/kg/injection, schedule: Q01DX009 (ip), vehicle: saline with Tween-80.
[15] abbreviates: dose: 120.0 mg/kg/injection, schedule: Q01DX005 (ip), vehicle: saline with Tween-80.
Setting [16] is: dose: 240.0 mg/kg/injection, schedule: Q01DX005 (ip), vehicle: saline with Tween-80.
Where [17] appears, read: dose: 100.0 mg/kg/injection, schedule: Q04DX003 (ip), vehicle: saline with Tween-80.
The mark [18] stands for this setting: dose: 200.0 mg/kg/injection, schedule: Q04DX003 (ip), vehicle: saline with Tween-80.
[19] abbreviates: dose: 400.0 mg/kg/injection, schedule: Q04DX003 (ip), vehicle: saline with Tween-80.

On to `CC(=O)SC1CC(=O)OC1=O` (configuration not stated), for which the T/C is 100 % of control under setting [1]; 105 % of control under setting [2]; 96 % of control (dose: 100.0 mg/kg/injection, schedule: Q01DX009 (ip), vehicle: saline); 105 % of control (dose: 200.0 mg/kg/injection, schedule: Q01DX009 (ip), vehicle: saline).

`O=[N+]([O-])c1nccn1C1OC(CO)C(O)C1O` (configuration not stated): the T/C runs as follows: (dose: 6.25 mg/kg/injection, schedule: Q01DX009 (ip), vehicle: saline) 98 % of control; (dose: 12.5 mg/kg/injection, schedule: Q01DX009 (ip), vehicle: saline) 99 % of control; under setting [1], 104 % of control; under setting [2], 104 % of control.

For `COc1ccc(C(=NCCO)c2ccc(O)cc2)c(OC)c1`, the T/C by setting is: (dose: 50.0 mg/kg/injection, schedule: Q01DX005 (ip), vehicle: saline with Tween-80) 104 % of control; (dose: 100.0 mg/kg/injection, schedule: Q01DX005 (ip), vehicle: saline with Tween-80) 92 % of control; (dose: 200.0 mg/kg/injection, schedule: Q01DX005 (ip), vehicle: saline with Tween-80) 91 % of control.

Turning to `CN(CCO)CNC(=O)C1=C(O)C2(O)C(=O)C3=C(O)c4c(O)cccc4C(C)(O)C3CC2C(N(C)C)C1=O` (configuration not stated), the T/C by setting is: under setting [3], 105 % of control; under setting [4], 103 % of control; under setting [5], 100 % of control.

As to `Cc1[nH]c2ccccc2c1-c1cc(-c2cc(-c3c(C)[nH]c4ccccc34)on2)no1`, the T/C runs as follows: under setting [6], 97 % of control; under setting [7], 100 % of control; under setting [8], 103 % of control.

As to `CN(C)P1(=O)OCC(C(C)(C)C)CN1C` (configuration not stated), the T/C by setting is: under setting [9], 100 % of control; under setting [10], 107 % of control.

As for `N=C(N)c1ccc(/C=C/c2ccc(C(=N)N)cc2)cc1`, the T/C runs as follows: (dose: 8.0 mg/kg/injection, schedule: Q01DX009 (ip), vehicle: saline with Tween-80) 119 % of control; (dose: 16.0 mg/kg/injection, schedule: Q01DX009 (ip), vehicle: saline with Tween-80) 122 % of control and 124 % of control; (dose: 32.0 mg/kg/injection, schedule: Q01DX009 (ip), vehicle: saline with Tween-80) 124 % of control; (dose: 64.0 mg/kg/injection, schedule: Q01DX009 (ip), vehicle: Klucel (hydroxypropylcellulose) (HPC)) 177 % of control.

Turning to `Cc1nnc2c3nccnc3c(Cl)nn12`, the T/C reads like this: (dose: 15.0 mg/kg/injection, schedule: Q01DX005 (ip), vehicle: saline with Tween-80) 105 % of control; (dose: 30.0 mg/kg/injection, schedule: Q01DX005 (ip), vehicle: saline with Tween-80) 112 % of control; under setting [11], 102 % of control and 105 % of control.

For `COc1cc(Cc2nc3n(O)cc(-c4ccccc4)nc-3c(=N)n2)cc(OC)c1OC`, the T/C is, setting by setting: under setting [12], 104 % of control; under setting [13], 108 % of control; under setting [14], 104 % of control.

For the molecule `COC(=S)C(=S)OC`, the T/C runs as follows: under setting [12], 108 % of control; under setting [13], 108 % of control.

As to `Cn1/c(=N\N)sc2ccc(S(=O)(=O)O)cc21`, the T/C is 97 % of control under setting [9]; 103 % of control under setting [10]; 105 % of control (dose: 200.0 mg/kg/injection, schedule: Q01DX009 (ip), vehicle: Klucel (hydroxypropylcellulose) (HPC)).

As for `O=C1C(c2ccccc2)C2NC(C1c1ccccc1)C([N+](=O)[O-])C=C2[N+](=O)[O-]` (configuration not stated), the T/C runs as follows: (dose: 25.0 mg/kg/injection, schedule: Q01DX001 (ip), vehicle: Klucel (hydroxypropylcellulose) (HPC)) 94 % of control; (dose: 50.0 mg/kg/injection, schedule: Q01DX001 (ip), vehicle: Klucel (hydroxypropylcellulose) (HPC)) 90 % of control.

As for `COC(=O)c1noc2c1CSC1=C2CS(=O)(=O)c2ccccc21`, the T/C reads like this: under setting [11], 104 % of control; under setting [15], 104 % of control; under setting [16], 98 % of control.

For the molecule `CCC(=O)O[C@H]1CC[C@H]2[C@@H]3C[C@H](C)C4=CC(=O)C=C[C@]4(C)[C@H]3C(=O)C[C@]12C`, the T/C was 90 % of control under setting [17], 104 % of control under setting [18] and 100 % of control under setting [19].

Turning to `CC(C)=NNC(=O)CNc1cccc(C(F)(F)F)c1`, the T/C by setting is: under setting [11], 97 % of control; under setting [15], 100 % of control; under setting [16], 106 % of control.

Take `CCOc1c(N=Nc2ccc(O)cc2)c(C)nn1C(=S)S`: the T/C by setting is: under setting [6], 115 % of control; under setting [7], 115 % of control; under setting [8], 118 % of control.

Consider `C/C=C/CC1(CC)C(=O)NC(=S)NC1=O`, for which the T/C under setting [14] was 100 % of control.

`O=C1NC(=O)/C(=C\c2ccco2)S1`: the T/C is, setting by setting: (dose: 6.25 mg/kg/injection, schedule: Q01DX009 (ip), vehicle: Klucel (hydroxypropylcellulose) (HPC)) 98 % of control; (dose: 12.5 mg/kg/injection, schedule: Q01DX009 (ip), vehicle: Klucel (hydroxypropylcellulose) (HPC)) 89 % of control; (dose: 25.0 mg/kg/injection, schedule: Q01DX009 (ip), vehicle: Klucel (hydroxypropylcellulose) (HPC)) 94 % of control.

As for `O=c1c2cocc2c(O)c2n1Cc1cc3ccccc3nc1-2`, the T/C by setting is: (dose: 50.0 mg/kg/injection, schedule: Q01DX001 (ip), vehicle: saline with Tween-80) 100 % of control and 101 % of control; (dose: 100.0 mg/kg/injection, schedule: Q01DX001 (ip), vehicle: saline with Tween-80) 99 % of control and 110 % of control and 120 % of control; (dose: 200.0 mg/kg/injection, schedule: Q01DX001 (ip), vehicle: saline with Tween-80) 99 % of control and 110 % of control and 120 % of control; (dose: 400.0 mg/kg/injection, schedule: Q01DX001 (ip), vehicle: saline with Tween-80) 100 % of control and 102 % of control and 112 % of control.

`Cc1nnc(N)c(C#N)c1C`: the T/C was 95 % of control (dose: 50.0 mg/kg/injection, schedule: Q01DX005 (ip), vehicle: saline); 104 % of control (dose: 100.0 mg/kg/injection, schedule: Q01DX005 (ip), vehicle: saline); 93 % of control (dose: 200.0 mg/kg/injection, schedule: Q01DX005 (ip), vehicle: saline).

Regarding `c1ccc(C2C(c3nc4ccccc4o3)C(c3ccccc3)C2c2nc3ccccc3o2)cc1` (configuration not stated), the T/C by setting is: under setting [3], 91 % of control; under setting [4], 89 % of control; under setting [5], 86 % of control.

With `CCNC(=O)Nc1nc2ccccc2[nH]1`, the T/C is, setting by setting: under setting [12], 103 % of control; under setting [13], 100 % of control; under setting [14], 107 % of control.

On to `C=C(C)C1CC2=C(C(=O)OC)C=C(O2)C(C(=C)C)C2C=C(C(=O)O2)C2OC12` (configuration not stated), for which the T/C was 99 % of control (dose: 12.5 mg/kg/injection, schedule: Q01DX005 (ip), vehicle: saline + alcohol); 103 % of control (dose: 25.0 mg/kg/injection, schedule: Q01DX005 (ip), vehicle: saline + alcohol); 97 % of control (dose: 50.0 mg/kg/injection, schedule: Q01DX005 (ip), vehicle: saline + alcohol); 108 % of control (dose: 100.0 mg/kg/injection, schedule: Q01DX005 (ip), vehicle: saline + alcohol).

Take `O=C(CCCCl)Oc1ccccc1`: the T/C reads like this: under setting [17], 100 % of control; under setting [18], 109 % of control; under setting [19], 104 % of control.

Consider `CO[C@@H]1[C@H](O)CC[C@]2(CO2)[C@H]1[C@@]1(C)O[C@@H]1CC=C(C)C`, for which the T/C is, setting by setting: (dose: 3.13 mg/kg/injection, schedule: Q01DX009 (ip), vehicle: saline with Tween-80) 99 % of control and 120 % of control; (dose: 6.25 mg/kg/injection, schedule: Q01DX009 (ip), vehicle: saline with Tween-80) 99 % of control and 116 % of control; under setting [12], 99 % of control and 106 % of control; under setting [13], 108 % of control and 120 % of control; (dose: 33.3 mg/kg/injection, schedule: Q01DX009 (ip), vehicle: saline with Tween-80) 99 % of control.

The values are drawn from PubChem BioAssay AID330 (DTP/NCI, 2004).
